# Results as given in patent US9006442B2, “Cannabinoid receptor modulators” (Lupin Limited, priority 2011, dated 2015).
# Biological target: hCB2 (Homo sapiens, UniProt P34972)
# Assay: cAMP determination in functional hCB2-CHO stable cells (HTRF)
# Assay type: cell-based
# Details: not given
# Description: In-Vitro Assay Method for Determination of cAMP in Functional hCB2—CHO Stable Cells:
# Recombinant CHO-hCB2 cells (procured from Perkin Elmer Inc. USA) were propagated and maintained in Ham's F-12 complete medium containing 10% heat inactivated FBS (Sigma.UK) and 1× penstrep. For assay, 0.1×10^6 to 1.0×10^6 CHO-hCB2 cells were seeded in T-25 flask and grown to mid-log phase in culture media without antibiotics for 2-3 days. […] The test is performed in 96^1/2 area black well plates. For agonist testing, 20 μl cells/well were mixed with 20 μl of sample and 10 μl of forskolin (with final concentration of 10 μM) and incubated for 20 to 40 min at room temperature in incubator. The plate was then processed for the cAMP determination using cAMP Femto-2 HTRF kit (Cisbio, Germany) as per the manual.
# The concentration of compound required to stimulate a half-maximal response (EC50) was determined using the GraphPad Prism software (version 5).
# hCB2, sequence (P34972 whole entry): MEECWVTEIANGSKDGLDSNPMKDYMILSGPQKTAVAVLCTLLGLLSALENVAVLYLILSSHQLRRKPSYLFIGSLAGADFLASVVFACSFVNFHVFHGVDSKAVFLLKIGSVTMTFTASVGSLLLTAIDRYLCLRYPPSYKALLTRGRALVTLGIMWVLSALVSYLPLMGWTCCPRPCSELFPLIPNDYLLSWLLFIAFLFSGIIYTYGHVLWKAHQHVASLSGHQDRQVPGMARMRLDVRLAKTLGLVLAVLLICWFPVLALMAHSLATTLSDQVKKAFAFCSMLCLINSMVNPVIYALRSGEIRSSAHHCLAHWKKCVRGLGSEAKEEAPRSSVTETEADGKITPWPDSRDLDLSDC
row,SMILES,EC50
1,"CCN(CC)C(=O)c1cnc(Nc2cccc(C(F)(F)F)c2C)c2cccc(Cl)c12 [compound 325, 5-Chloro-N-N-diethyl-1-((2-methyl-3-(trifluoromethyl)phenyl)amino) isoquinolin-4-carboxamide]",< 0.01 µM
2,"Cc1ccc(Nc2ncc(C(=O)N3CCCCC3)c3c(C)cccc23)cc1Cl [Example-92, (1-((3-Chloro-4-methylphenyl)amino)-5-methylisoquinolin-4-yl)(piperidin-1-yl)methanone]",< 0.01 µM
3,"CCN(CC)C(=O)c1cnc(Nc2cccc(Cl)c2F)c2cccc(C)c12 [compound 282, 1-((3-Chloro-2-fluorophenyl)amino)-N,N-diethyl-5-methyl isoquinolin-4-carboxamide]",0.01 to 1 µM
4,"O=C(NCC1CCOCC1)c1ccc(Nc2cccc(Cl)c2)c2ccccc12 [Example-180, 4-((3-Chlorophenyl)amino)-N-((tetrahydro-2H-pyran-4-yl)methyl)-1-naphthamide]",0.01 to 1 µM
5,"Cc1cccc2c(Nc3ccc(F)c(Cl)c3)ncc(C(=O)N3CC4CC(C3)O4)c12 [Example-60, 6-Oxa-3-azabicyclo[3.1.1]heptan-3-yl(1-((3-chloro-4-fluorophenyl)amino)-5-methylisoquinolin-4-yl)methanone]",0.01 to 1 µM
6,"Cc1cccc2c(Nc3cccc(C(F)(F)F)c3)ncc(C(=O)N3CCCCC3)c12 [Example-23, (5-Methyl-1-(((3-trifluoromethyl)phenyl)amino)isoquinolin-4-yl)(piperidin-1-yl)methanone]",< 0.01 µM
7,"Cc1ccc(Nc2ccc(C(=O)N3CCOCC3)c3c(C)cccc23)cc1F [Example-152, (4-((3-Fluoro-4-methylphenyl)amino)-8-methylnaphthalen-1-yl)(morpholino)methanone]",< 0.01 µM
8,"Cc1cccc2c(Nc3cccc(F)c3)ncc(C(=O)N3CCCCC3)c12 [Example-21, (1-((3-Fluorophenyl)amino)-5-methylisoquinolin-4-yl)(piperidino)methanone]",< 0.01 µM
9,"Cc1cccc2c(Nc3cccc(F)c3F)ccc(C(=O)N3CC4CC(C3)O4)c12 [Example-172, 6-Oxa-3-azabicyclo[3.1.1]heptan-3-yl(4-((2,3-difluorophenyl)amino)-8-methylnaphthalen-1-yl)methanone]",< 0.01 µM
10,"Cc1c(Cl)cccc1Nc1ncc(C(=O)N(C)C)c2c(Cl)cccc12 [compound 332, 5-Chloro-1-((3-chloro-2-methylphenyl)amino)-N,N-dimethyl isoquinolin-4-carboxamide]",< 0.01 µM
11,"Cc1c(Cl)cccc1Nc1ncc(C(=O)N2CC3CC(C2)O3)c2c(C)cccc12 [Example-65, 6-Oxa-3-azabicyclo[3.1.1]heptan-3-yl(1-((3-chloro-2-methylphenyl)amino)-5-methylisoquinolin-4-yl)methanone]",< 0.01 µM
12,"Cc1cccc2c(Nc3cccc(CF)c3)ncc(C(=O)N3CCOCC3)c12 [Example-12, (1-(((3-Fluoromethyl)phenyl)amino)-5-methylisoquinolin-4-yl)(morpholino)methanone]",0.01 to 1 µM
13,"O=C(c1cnc(Nc2cccc(Cl)c2)c2cccc(C3CC3)c12)N1CCOCC1 [Example-114, (1-((3-Chlorophenyl)amino)-5-cyclopropylisoquinolin-4-yl)(morpholino)methanone]",< 0.01 µM
14,"CCN(C)C(=O)c1cnc(Nc2cccc(Cl)c2Cl)c2cccc(Cl)c12 [compound 363, 5-Chloro-1-((2,3-dichlorophenyl)amino)-N-ethyl-N-methyl isoquinolin-4-carboxamide]",< 0.01 µM
15,"O=C(c1ccc(Nc2cccc(C(F)(F)F)c2)c2ccccc12)N1CCOCC1 [Example-201, Morpholino(4-((3-(trifluoromethyl)phenyl)amino)naphthalen-1-yl)methanone]",< 0.01 µM
16,"O=C(c1ccc(Nc2ccc(Cl)cc2Cl)c2ccccc12)N1CCOCC1 [Example-197, (4-((2,4-Dichlorophenyl)amino)naphthalen-1-yl)(morpholino)methanone]",0.01 to 1 µM
17,"CCN(C)C(=O)c1ccc(Nc2cccc(C(F)(F)F)c2F)c2cccc(C)c12 [compound 413, N-Ethyl-4-((2-fluoro-3-(trifluoromethyl)phenyl)amino)-N,8-dimethyl-1-naphthamide]",< 0.01 µM

# Same assay, conditions: CHO-hCB2 cells, cAMP, forskolin 10 μM, agonist testing; read-out: EC50 Range
row,SMILES,EC50
1,"CCN(C)C(=O)c1ccc(Nc2cccc(C)c2C)c2cccc(C)c12 [compound 453, 4-((2,3-Dimethylphenyl)amino)-N-ethyl-N,8-dimethyl-1-naphthamide]",< 0.01 µM
2,"CC(C)N(C)C(=O)c1cnc(Nc2cccc(F)c2C(F)(F)F)c2cccc(Cl)c12 [compound 381, 5-Chloro-1-((3-fluoro-2-(trifluoromethyl)phenyl)amino)-N-isopropyl-N-methylisoquinolin-4-carboxamide]",0.01 to 1 µM
3,"Cc1cccc2c(Nc3cc(F)cc(F)c3)ncc(C(=O)N3CCOCC3)c12 [Example-3, (1-((3,5-Difluorophenyl)amino)-5-methylisoquinolin-4-yl)(morpholino)methanone]",< 0.01 µM
4,"CCN(CC)C(=O)c1ccc(Nc2cccc(C(=O)OC)c2C)c2cccc(C)c12 [compound 411, Methyl 2-methyl-3-((5-methyl-4-(diethylcarbamoyl)naphthalen-1-yl)amino)benzoate]",< 0.01 µM
5,"CCN(C)C(=O)c1ccc(Nc2cccc(C(F)(F)F)c2C)c2cccc(C)c12 [compound 452, N-Ethyl-N,8-dimethyl-4-((2-methyl-3-(trifluoromethyl)phenyl)amino)-1-naphthamide]",< 0.01 µM
6,"Cc1c(F)cccc1Nc1ccc(C(=O)N2CC3CC3C2)c2c(C)cccc12 (stereo not drawn) [Example-170, 3-Azabicyclo[3.1.0]hexan-3-yl(4-((3-fluoro-2-methylphenyl)amino)-8-methylnaphthalen-1-yl)methanone]",< 0.01 µM
7,"COC(=O)c1cccc(Nc2ccc(C(=O)N3CCOCC3)c3c(C)cccc23)c1 [compound 408, Methyl 3-((5-methyl-4-(morpholin-4-carbonyl)naphthalen-1-yl)amino) benzoate]",< 0.01 µM
8,"Cc1cccc2c(Nc3ccc(F)cc3)ncc(C(=O)N3CCOCC3)c12 [Example-5, (1-((4-Fluorophenyl)amino)-5-methylisoquinolin-4-yl)(morpholino)methanone]",0.01 to 1 µM
9,"Cc1cccc2c(Nc3cccc(F)c3F)ncc(C(=O)N3CCCCC3)c12 [Example-33, (1-((2,3-Difluorophenyl)amino)-5-methylisoquinolin-4-yl)(piperidin-1-yl)methanone]",< 0.01 µM
10,"Cc1cccc2c(Nc3ccc(F)c(C(F)(F)F)c3)ncc(C(=O)N3CCOCC3)c12 [Example-6, (1-((4-Fluoro-3-(trifluoromethyl)phenyl)amino)-5-methylisoquinolin-4-yl)(morpholino)methanone]",< 0.01 µM
11,"CCN(CC)C(=O)c1cnc(Nc2cccc(C(F)(F)F)c2F)c2cccc(Cl)c12 [compound 328, 5-Chloro-N,N-diethyl-1-((2-fluoro-3-(trifluoromethyl)phenyl)amino) isoquinolin-4-carboxamide]",< 0.01 µM
12,O=C(c1cnc(Nc2cccc(F)c2F)c2cccc(C3CC3)c12)N1CCOCC1 [Example-116],< 0.01 µM
13,"Cc1c(Nc2ccc(C(=O)N(C)C)c3c(C)cccc23)cccc1C(F)(F)F [compound 427, N,N,8-Trimethyl-4-((2-methyl-3-(trifluoromethyl)phenyl)amino)-1-naphthamide]",< 0.01 µM
